# Like-named read-outs stand apart in the source and are kept apart here.
# Biological target: T1, E. coli DdlB enzyme (D-alanine:D-alanine ligase) (Escherichia coli, UniProt P07862)
# T1 construct: made in house; host or cells: E. coli
# Assay: biochemical
# Conditions: read-out: DdlB RA; for remaining activity at 2100 µM: tested concentration 2.1 mM; for remaining activity at 1900 µM: tested concentration 1.9 mM; for remaining activity at 2200 µM: tested concentration 2.2 mM; for remaining activity at 2300 µM: tested concentration 2.3 mM; for remaining activity at 2000 µM: tested concentration 2.0 mM; for remaining activity at 1700 µM: tested concentration 1.7 mM; for remaining activity at 1800 µM: tested concentration 1.8 mM; for remaining activity at 2600 µM: tested concentration 2.6 mM; for remaining activity at 3000 µM: tested concentration 3.0 mM; for remaining activity at 3300 µM: tested concentration 3.3 mM; for remaining activity at 2400 µM: tested concentration 2.4 mM; for remaining activity at 2500 µM: tested concentration 2.5 mM; for remaining activity at 2900 µM: tested concentration 2.9 mM
# [1] = residual activity of DdlB, fragment library screening
smiles,measurement,setting,value
Cc1nc2ccccc2c(O)c1S(=O)(=O)O [Compound L150-1119],remaining activity at 2100 µM,,90%
O=C(Cc1c[nH]c2ncccc12)NCc1ccccc1 [Compound M508-0504],remaining activity at 1900 µM,residual activity,82%
CC(C)CNC(=O)Cc1c[nH]c2ncccc12 [Compound M508-0619],remaining activity at 2200 µM,residual activity,94%
CCCN(C)C(=O)Cc1c[nH]c2ncccc12 [Compound M508-0627],remaining activity at 2200 µM,residual activity,86%
CNC(=O)NCCc1c[nH]c2ncccc12 [Compound M509-0295],remaining activity at 2300 µM,residual activity,80%
Cc1ccc(S(=O)(=O)N2CCc3[nH]cnc3C2)cc1 [Compound M512-0400],remaining activity at 2000 µM,residual activity,94%
Cc1nnc(C2CCCCN2C(=O)NC2CCCCC2)[nH]1 (stereo not drawn) [Compound M754-0764],remaining activity at 1700 µM,residual activity,77%
Cc1cccc(C(=O)N2CCCCC2c2nnc(C)[nH]2)c1 (stereo not drawn) [Compound M754-0809],remaining activity at 1800 µM,residual activity,89%
O=C(c1ccco1)N1CCCCC1c1nnc(C2CC2)[nH]1 (stereo not drawn) [Compound M754-1192],remaining activity at 1700 µM,residual activity,90%
Cc1cccc(Nc2ncccc2S(N)(=O)=O)c1 [Compound M784-3114],remaining activity at 1900 µM,,94%
Cc1ccc(Nc2ncccc2S(N)(=O)=O)cc1 [Compound M784-3115],remaining activity at 1900 µM,,85%
CCNc1cc(N2CCC(CCC(=O)O)CC2)ncn1 [Compound P207-8919],remaining activity at 1800 µM,fragment library screening,83%
Cn1ncc(N2CCC[C@@H](C(=O)O)C2)cc1=O [Compound P207-8929],remaining activity at 2100 µM,,92%
Cc1ccc2cc(CCC(=O)O)c(O)nc2c1 [Compound P207-8939],remaining activity at 2600 µM,,93%
Cn1nc(C(=O)O)c2c1CCOC2 [Compound P207-8979],remaining activity at 3000 µM,[1],88%
CN1CCC(Oc2ncccc2C(=O)O)CC1 [Compound P391-0905],remaining activity at 2100 µM,,92%
Cc1cccc(Cc2n[nH]c(CC(=O)NC3CCCC3)n2)c1 [Compound P496-1655],remaining activity at 1700 µM,,97%
O=C(NCc1c[nH]c2ncccc12)C1CCC1 [Compound P610-0073],remaining activity at 2200 µM,residual activity,90%
Cc1ccccc1NS(=O)(=O)c1c[nH]c2ncccc12 [Compound P633-0038],remaining activity at 1700 µM,residual activity,89%
O=S(=O)(c1c[nH]c2ncccc12)N1CCc2ccccc21 [Compound P633-0115],remaining activity at 1700 µM,,83%
CCn1cc(S(=O)(=O)NC2CCCC2)c2cccnc21 [Compound P633-0557F],remaining activity at 2000 µM,residual activity,89%
O=C(C1CCCN(C(=O)C2CCC2)C1)N1CCOCC1 (stereo not drawn) [Compound P773-6398],remaining activity at 2000 µM,residual activity,98%
O=C(Nc1nnc[nH]1)C1CCC1 [Compound P774-4606],remaining activity at 3000 µM,[1],94%
CCn1cnnc1CC1CCNC1 (stereo not drawn) [Compound P936-0678],remaining activity at 3300 µM,[1],90%
CC(=O)N1CCCC(c2nn(C)c(=O)n2C2CCCC2)C1 (stereo not drawn) [Compound P940-4223],remaining activity at 2100 µM,residual activity,96%
O=C(Cc1ccccc1)NCC1CCOCC1 [Compound P970-0162],remaining activity at 2600 µM,,92%
CC1(CNC(=O)c2ccccc2Cl)CCOCC1 [Compound P970-0504],remaining activity at 2200 µM,residual activity,94%
Cc1ccc(C(=O)N(C)CC2(C)CCOCC2)cn1 [Compound P970-1095],remaining activity at 2300 µM,residual activity,94%
NS(=O)(=O)c1cccc2cccnc12 [Compound R005-0042],remaining activity at 2400 µM,,88%
O=C(O)c1cc(-c2ccc3c(c2)OCO3)on1 [Compound R314-0020],remaining activity at 2100 µM,residual activity,114%
CCOc1ncccc1CN [Compound S055-1650],remaining activity at 3300 µM,[1],89%
Cn1nccc1C(=O)N1CCC(Nc2cccnc2)C1 (stereo not drawn) [Compound S059-0159],remaining activity at 2200 µM,residual activity,85%
CCNC(=O)N1CCC(c2noc(-c3ccccc3)n2)C1 (stereo not drawn) [Compound S069-0392],remaining activity at 1900 µM,residual activity,94%
c1cnc(-c2nc(C3CCNC3)no2)cn1 (stereo not drawn) [Compound S069-3207],remaining activity at 1700 µM,,95%
CN(CC1CCOC1)C(=O)NC1CCCCC1 (stereo not drawn) [Compound S213-1594],remaining activity at 2500 µM,,91%
Cc1ccc(F)cc1S(=O)(=O)N(C)CC1CCOC1 (stereo not drawn) [Compound S213-1645],remaining activity at 2100 µM,residual activity,102%
Cc1cc(C)cc(NC(=O)N(C)CC2CCOC2)c1 (stereo not drawn) [Compound S213-1693],remaining activity at 2100 µM,residual activity,96%
Cc1ccc(C)c(C(=O)N(C)CC2CCOC2)c1 (stereo not drawn) [Compound S213-1736],remaining activity at 2400 µM,,99%
CN(CC1CCOC1)C(=O)C1CC1 (stereo not drawn) [Compound S213-1842],remaining activity at 3000 µM,[1],91%
CCc1nc(N2CCOCC2)ncc1C(=O)O [Compound S272-0074],remaining activity at 2500 µM,,91%
CCc1nc(NCc2ccncc2)ncc1C(=O)O [Compound S272-1779],remaining activity at 1900 µM,fragment library screening,93%
NCCc1noc(C2CC2)n1 [Compound S399-0482],remaining activity at 2600 µM,[1],95%
CCC(=O)N1CCC(CC(=O)N2CCOCC2)C1 (stereo not drawn) [Compound S421-0882],remaining activity at 2000 µM,,70%
CCOc1ccc2c(n1)CCN(C(=O)C1CC1)C2 [Compound S422-0032],remaining activity at 2000 µM,,97%
CC(C(=O)NCc1cc(F)cc(F)c1)C1CCOCC1 (stereo not drawn) [Compound S424-0231],remaining activity at 2100 µM,residual activity,92%
CC(C)(C(=O)O)C1CCOCC1 [Compound S424-0502],remaining activity at 2900 µM,,98%
CCC(=O)N1CCC(c2nc(C3CCOCC3)no2)C1 (stereo not drawn) [Compound S428-0464],remaining activity at 2100 µM,residual activity,95%
CC(C)C(=O)N1CCC2(CCNC(=O)CC2)CC1 [Compound S509-1270],remaining activity at 2000 µM,,93%
CCCNC(=O)N1CCC2(CCC(=O)N(C)CC2)CC1 [Compound S509-1557],remaining activity at 2000 µM,residual activity,98%
COc1cccc(CNC(=O)C2CCCCC(=O)N2C)c1 (stereo not drawn) [Compound S513-0092],remaining activity at 1900 µM,residual activity,97%
CC1(C(=O)O)CCCCC(=O)N1 (stereo not drawn) [Compound S515-0278],remaining activity at 2900 µM,,93%
CCC1(C(=O)NC2CCCCCC2)CCCCC(=O)N1 (stereo not drawn) [Compound S515-0307],remaining activity at 2100 µM,residual activity,99%
CN1CCC2(CC1)CNCc1ccccc1O2 [Compound S530-0066],remaining activity at 2200 µM,,94%
O=C1NC(C(=O)O)Cn2cccc21 (stereo not drawn) [Compound S531-0139],remaining activity at 2800 µM,tested concentration 2.8 mM,90%
Cc1ccc(CNC(=O)C2Cn3cccc3C(=O)N2C)o1 (stereo not drawn) [Compound S531-0187],remaining activity at 1700 µM,residual activity,92%
Cc1nc(N2CCC(C(=O)O)CC2)cc(C(F)(F)F)n1 [Compound S553-0322],remaining activity at 1700 µM,,105%
CCn1cnnc1-c1nn(C)c2c1CNCC2 [Compound S565-0571],remaining activity at 2000 µM,,89%
O=C1CCC2(CNC(=O)C3CCOCC3)CCCC=C2N1 (stereo not drawn) [Compound S570-0163],remaining activity at 2100 µM,residual activity,94%
CN1CCCCC(CC(=O)O)C1=O (stereo not drawn) [Compound S581-1125],remaining activity at 2700 µM,tested concentration 2.7 mM,95%
Cc1noc(C)c1C(=O)NCC1Cn2cccc2CN1C (stereo not drawn) [Compound S590-0019],remaining activity at 2100 µM,residual activity,45%
CCc1ccc(C(=O)N2CCC(C3CCNC3)CC2)cc1 (stereo not drawn) [Compound S632-2763],remaining activity at 1700 µM,residual activity,69%
COCC1CN(C(C)=O)CC12CCNCC2 (stereo not drawn) [Compound S635-3083],remaining activity at 1900 µM,,93%
NC(=O)CN1C(=O)C2(CCCCC2)C1c1ccccc1 (stereo not drawn) [Compound S642-0104],remaining activity at 2200 µM,residual activity,96%
CCS(=O)(=O)N1CCC2(CCC2OC)CC1 (stereo not drawn) [Compound S664-0247],remaining activity at 2000 µM,,92%
Cc1ncoc1C(=O)N1CCCC(n2c(C)cnc2C)C1 (stereo not drawn) [Compound S692-1464],remaining activity at 2100 µM,residual activity,96%
CCn1nccc1C(=O)N1CC(n2ccnc2C)C1 [Compound S695-2086],remaining activity at 1900 µM,,95%
